Active and inactive are the calls of the source. The rule behind the calls is not given here.

The subject of one series is A549. Kind of series: Cytotoxicity against human A549 cells assessed as reduction in cell viability measured after 48 hrs by SRB assay. The settings on record: A549, 48 h. It is filed as functional, cell-based.
The subject of another series is DU-145. Nature of the series: Cytotoxicity against human DU145 cells assessed as reduction in cell viability measured after 48 hrs by SRB assay. It is filed as functional, cell-based. The settings on record: DU-145, 48 h.
In series [1] the test system is HeLa. Kind of series: Cell cycle arrest in human HeLa cells assessed as G2/M phase accumulation at 20 uM after 24 hrs by propidium iodide staining based flow cytometric analysis (reference value: 29.18%). The series is classed as functional. A general note: Flow cytometry measures light scatter and fluorescence of single cells or particles in a stream.
Series [2] relates to HeLa. Kind of series: Cell cycle arrest in human HeLa cells assessed as G2/M phase accumulation after 24 hrs by propidium iodide staining based flow cytometric analysis. The series is classed as functional.
In series [3] the test system is HeLa. Kind of series: Cell cycle arrest in human HeLa cells assessed as G2/M phase accumulation at 5 uM after 24 hrs by propidium iodide staining based flow cytometric analysis (reference value: 29.18%). It is filed as functional.
Series [4] addresses T1, Tubulin (Homo sapiens) (UniProt P68371+Q9H4B7+P0DPH7+P68366+Q13509+Q71U36+P04350+Q3ZCM7+P07437+P68363+Q9BQE3+Q6PEY2+Q13885+Q9BVA1+Q9BUF5). Nature of the series: Induction of tubulin polymerization in human HeLa cells assessed as increase in insoluble tubulin fraction after 24 hrs by Western blot analysis. The series is classed as cell-based.
The next series deals with MDA-MB-231. Kind of series: Cytotoxicity against human MDA-MB-231 cells assessed as reduction in cell viability measured after 48 hrs by SRB assay. It is filed as functional, cell-based. The settings on record: MDA-MB-231, 48 h. A general note: The SRB assay estimates cell density from bound dye.
For series [5], the species on record is Bos taurus. Nature of the series: Induction of bovine brain tubulin polymerization at 5 uM measured for 1 hr at 1 min interval by fluorescence assay relative to control.
Series [6] relates to HeLa. Kind of series: Cell cycle arrest in human HeLa cells assessed as G2/M phase accumulation at 10 uM after 24 hrs by propidium iodide staining based flow cytometric analysis (reference value: 29.18%). It is filed as functional.
Another series concerns IMR-32. Nature of the series: Cytotoxicity against human IMR32 cells assessed as reduction in cell viability measured after 48 hrs by SRB assay. The series is classed as functional, cell-based. To be noted: IMR-32, 48 h.
For series [7], the target named is T1, Tubulin (Homo sapiens). Kind of series: Induction of tubulin polymerization in human HeLa cells assessed as chromosomal alignment on metaphase plate at 10 uM after 24 hrs by DAPI staining/confocal microscopy-based immunofluorescence analysis. The series is classed as cell-based.
The next series relates to HEK293. Nature of the series: Cytotoxicity against HEK293 cells assessed as reduction in cell viability measured after 48 hrs by SRB assay. The series is classed as cell-based. To be noted: Homo sapiens, HEK293, 48 h.
Series [8] is filed under the species Bos taurus. Nature of the series: Inhibition of bovine brain tubulin polymerization measured for 1 hr at 1 min interval by fluorescence assay relative to control.
Series [9] addresses T1, Tubulin (Homo sapiens). Nature of the series: Induction of tubulin polymerization in human HeLa cells assessed as multiple spindle formation after 24 hrs by DAPI staining/confocal microscopy-based immunofluorescence analysis. The series is classed as cell-based.
Series [10] concerns HeLa. Kind of series: Cell cycle arrest in human HeLa cells assessed as G2/M phase accumulation after 24 hrs by propidium iodide staining based flow cytometric analysis (reference value: 29.18%). The series is classed as functional.
In another series the test system is SiHa. Kind of series: Cytotoxicity against human SiHa cells assessed as reduction in cell viability measured after 48 hrs by SRB assay. The series is classed as functional, cell-based.
The next series concerns PANC-1. Nature of the series: Cytotoxicity against human PANC1 cells assessed as reduction in cell viability measured after 48 hrs by SRB assay. It is filed as functional, cell-based. To be noted: PANC-1, 48 h.
The nature of series [11]: Selectivity index, ratio of IC50 for HEK293 cells to IC50 for human DU145 cells. The series is classed as toxicity. The settings on record: HEK293 cells versus DU145 cells, read-out: Ratio IC50.

As usually defined, the IC50 is the point on the concentration scale where inhibition reaches its midpoint. Take `COc1cc2c(c(OC)c1OC)-c1c(cc3c(c1OC)OCO3)C[C@H](C)[C@@](C)(O)/C2=N/OCc1cn(-c2ccc([N+](=O)[O-])c(Cl)c2)nn1`: the half-maximal inhibitory concentration (IC50) with A549 came to 7.9 µM; with DU-145, 12.8 µM; in the series with MDA-MB-231, 11.4 µM; with IMR-32, 8.6 µM; in the series on HEK293 it was 50.2 µM. For the same compound, the Activity was 46.83% in the series with HeLa [1]; “Dose-dependent effect” in the series with HeLa [2]; 37.11% in the series on HeLa [3]; “Dose-dependent effect” on Tubulin (Homo sapiens) [4]; 43.06% in the series on HeLa [6]. Also, the fold change (FC) in the series filed under Bos taurus [5] is 1.25. Besides, at Tubulin (Homo sapiens) [7], the outcome was Active.
As for `COc1ccc(/C=C\c2cc(OC)c(OC)c(OC)c2)cc1O`, the fold change (FC) in the series filed under Bos taurus [8] came out at 0.15.
`CC(=O)O[C@H]1C(=O)[C@@]2(C)[C@H]([C@H](OC(=O)c3ccccc3)[C@]3(O)C[C@H](OC(=O)[C@H](O)[C@@H](NC(=O)c4ccccc4)c4ccccc4)C(C)=C1C3(C)C)[C@]1(OC(C)=O)CO[C@@H]1C[C@@H]2O`: the fold change (FC) in the series listed under Bos taurus [8] came out at 2.68. Moreover, the result at Tubulin (Homo sapiens) [9] and on Tubulin (Homo sapiens) [4] was Active.
Take `COC(=O)Nc1nc2cc(C(=O)c3cccs3)ccc2[nH]1` [NOCODAZOLE]: the Activity in the series with HeLa [10] is given as 91.7%.
For the compound `C/C=C(/C)C(=O)O[C@H]1c2cc(OC)c(OC)c(OC)c2-c2c(cc3c(c2OC)OCO3)C[C@H](C)[C@@]1(C)O` [ARISANSCHININ N], the 50% inhibitory concentration (IC50) in the series with A549 is 55.1 µM; in the series on SiHa it was 51.2 µM; in the series on PANC-1, 53.6 µM; in the series with DU-145 it was 64.7 µM; in the series on MDA-MB-231, 60.5 µM; in the series with IMR-32 it was 66.8 µM. For the same compound, the IC50 in the series on HEK293 was determined as 52 µM. The selectivity ratio in series [11] amounted to 1.6.
With `COc1cc2c(c(OC)c1OC)-c1c(cc3c(c1OC)OCO3)C[C@H](C)[C@@](C)(O)/C2=N/OCc1cn(-c2ccccc2C#N)nn1`, the IC50 in the series on A549 is 94.2 µM; in the series on SiHa it was 86.4 µM; in the series on PANC-1, 87.3 µM; in the series on DU-145 it was 92.7 µM; in the series with MDA-MB-231, 71.1 µM; with IMR-32 it was 79.8 µM. Moreover, in the series with HEK293, the IC50 is over 100 µM. Further, the selectivity ratio in series [11] was found to be 1.1.
Take `COc1cc2c(c(OC)c1OC)-c1c(cc3c(c1OC)OCO3)C[C@H](C)[C@@](C)(O)/C2=N/OCc1cn(-c2cccc(C)c2Cl)nn1`: the IC50 in the series with A549 was 85.6 µM; in the series on SiHa it was 69.2 µM; in the series with PANC-1 it was 81.9 µM; with DU-145, 88.6 µM; in the series with MDA-MB-231, 73.8 µM; in the series on IMR-32, 78.3 µM. In addition, the IC50 with HEK293 is over 100 µM. Moreover, in [11], the selectivity ratio was 1.1.
Take `COc1cc2c(c(OC)c1OC)-c1c(cc3c(c1OC)OCO3)C[C@H](C)[C@@](C)(O)/C2=N/OCc1cn(-c2cc(C)cc(C)c2)nn1`: the concentration for half-maximal inhibition (IC50) in the series with A549 stood at 91.7 µM; in the series on SiHa, 85.1 µM; with PANC-1, 89.3 µM; in the series on DU-145, 90.6 µM; in the series on MDA-MB-231, 81.4 µM; in the series on IMR-32, 79.8 µM. The IC50 with HEK293 is over 100 µM. For the same compound, in [11], the selectivity ratio was determined as 1.1.
On to `COc1cc2c(c(OC)c1OC)-c1c(cc3c(c1OC)OCO3)C[C@H](C)[C@@](C)(O)C2=O`, for which the IC50 with A549 was 94.8 µM; with SiHa, 75.1 µM; with PANC-1, 88.6 µM; with DU-145, 83.1 µM; in the series on MDA-MB-231, 73.1 µM; in the series with IMR-32, 72.3 µM. Moreover, in the series on HEK293, the IC50 is over 100 µM. Further, the selectivity ratio in series [11] is 1.2.
In the case of `COc1cc2c(c(OC)c1OC)-c1c(cc3c(c1OC)OCO3)C[C@H](C)[C@@](C)(O)[C@H]2O`, the IC50 in the series with A549 worked out at 94.2 µM; in the series with SiHa, 68.3 µM; with PANC-1 it was 78.4 µM; in the series with DU-145, 87.4 µM; in the series on MDA-MB-231 it was 81.2 µM; in the series with IMR-32, 86.7 µM. For the same compound, the IC50 in the series with HEK293 is over 100 µM. In addition, the selectivity ratio in [11] was determined as 1.14.

The values are drawn from ChEMBL document CHEMBL4190326, “Novel Gomisin B analogues as potential cytotoxic agents: Design, synthesis, biological evaluation and docking studies” (Eur J Med Chem, 2017).
